In patent US20060258598A1, “Alpha-keto carbonyl calpain inhibitors” (priority 2003, published 2006):

Columns and labels:
[1] = tested on: cellular calpains in C2C12 myoblasts; test: Calpain inhibition assay in C2C12 myoblasts; type: cell-based; settings: 2 h incubation, calcium ionophore Br-A-23187, read-out: Calp I IC50 Myoblast
Experimental: Calpain Inhibition Assay in C2C12 Myoblasts
This assay is aimed at monitoring the ability of the substance to inhibit cellular calpains. C2C12 myoblasts are grown in 96-well plates in growth medium (DMEM, 20% foetal calf serum) until they reach confluency. The growth medium is then replaced by fusion medium (DMEM, 5% horse serum). 24 hours later the fusion medium is replaced by fusion medium containing the test substances dissolved in 1 μl DMSO. After 2 hours of incubation at 37° C. the cells are loaded with the calpain fluorogenic substrate Suc-Leu-Tyr-AMC at 400 μM in 50 μl of a reaction buffer containing 135 mM NaCl; 5 mM KCl; 4 mM CaCl2; 1 mM MgCl2; 10 mM Glucose; 10 mM HEPES pH 7.25 for 20 min at room temperature. The calcium influx, necessary to activate the cellular calpains, is evoked by the addition of 50 μl reaction buffer containing 20 μM of the calcium ionophore Br-A-23187 (Molecular Probes). The fluorescence of the cleavage product AMC is measured as described above during 60 min at 37° C. at intervals of 1 min. The IC50 values are determined as described above. Comparison of the IC50 determined in the enzymatic calpain inhibition assay to the IC50 determined in the C2C12 myoblasts calpain inhibiton assay, allows to evaluate the cellular uptake or the membrane permeability of the substance.

[2] = tested on: Primary fibroblasts from donors with Friedreich Ataxia (FRDA); test: BSO assay (cell viability under BSO-induced oxidative stress); type: cell-based, human; settings: 24 h preincubation, 1 mM BSO; for EC50: Homo sapiens, Fibroblast
Experimental: Primary fibroblasts were derived from donors with molecular diagnosis for Friedreich Ataxia (FRDA) and control donors with no mitochondrial disease. Cell lines were obtained from Coriell Cell Repositories (Camden, N.J.; catalog numbers GM04078, GM08402 and GM08399 respectively). All cell types were diagnosed on the molecular level for intronic […] triplet repeat length of at least 400-450 repeats using a PCR-based method. Experiments were carried out as described in the literature (M. L. Jauslin et al., Human Mol. Genet., 2002, 11, 3055-3063): Cells were seeded in microtiter plates at a density of 4'000 cells per 100 μl in growth medium consisting of 25% (v/v) M199 EBS and 64% (v/v) MEM EBS without phenol red (Bioconcept, Allschwil, Switzerland) supplemented with 10% (v/v) fetal calf serum (PAA Laboratories, Linz, Austria), 100 U/ml penicillin, 100 μg/ml streptomycin (PAA Laboratories, Linz, Austria), 10 μg/ml insulin (Sigma, Buchs, Switzerland), 10 ng/ml EGF (Sigma, Buchs, Switzerland), 10 ng/ml bFGF (PreproTech, Rocky Hill, N.J.) and 2 mM glutamine (Sigma, Buchs, Switzerland). The cells were incubated in the presence of various test compounds for 24 h before addition of L-buthionine-(S,R)-sulfoximine (BSO) to a final concentration of 1 mM. Cell viability was measured after the first signs of toxicity appeared in the BSO-treated controls (typically after 16 to 48 h). The cells were stained for 60 min at room temperature in PBS with 1.2 μM calcein AM and 4 μM ethidium homodimer (Live/Dead assay, Molecular Probes, Eugene, Oreg.). Fluorescence intensity was measured with a Gemini Spectramax XS spectrofluorimeter (Molecular Devices, Sunnyvale, Calif.) using excitation and emission wavelengths of 485 nm and 525 nm respectively.

human μ-calpain = target: T1, human μ-calpain (Homo sapiens, UniProt P07384); test: Enzymatic calpain inhibition assay; type: biochemical; settings: substrate Suc-Leu-Tyr-AMC, read-out: Calp I IC50
T1 construct: purchased Calbiochem
T1 sequence (P07384 1-714): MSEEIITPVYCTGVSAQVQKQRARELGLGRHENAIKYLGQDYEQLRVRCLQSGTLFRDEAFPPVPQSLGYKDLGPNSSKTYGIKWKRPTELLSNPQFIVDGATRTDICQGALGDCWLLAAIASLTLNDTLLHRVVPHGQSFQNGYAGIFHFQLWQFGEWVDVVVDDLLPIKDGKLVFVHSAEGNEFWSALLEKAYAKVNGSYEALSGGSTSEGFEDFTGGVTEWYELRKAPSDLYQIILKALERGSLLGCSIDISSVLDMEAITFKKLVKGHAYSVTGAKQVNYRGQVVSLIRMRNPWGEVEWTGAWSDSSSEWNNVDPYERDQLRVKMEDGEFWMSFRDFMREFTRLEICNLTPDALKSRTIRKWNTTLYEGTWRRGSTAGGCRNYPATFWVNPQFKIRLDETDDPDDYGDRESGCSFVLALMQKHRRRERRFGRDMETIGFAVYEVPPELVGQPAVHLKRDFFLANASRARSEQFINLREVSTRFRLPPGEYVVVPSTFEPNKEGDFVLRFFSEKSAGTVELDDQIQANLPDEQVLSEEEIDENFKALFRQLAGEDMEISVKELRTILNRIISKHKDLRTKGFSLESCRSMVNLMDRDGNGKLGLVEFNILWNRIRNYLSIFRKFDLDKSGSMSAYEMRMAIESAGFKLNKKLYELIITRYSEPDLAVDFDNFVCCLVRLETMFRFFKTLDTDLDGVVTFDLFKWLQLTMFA
T1 sequence (P04632 1-268 partner): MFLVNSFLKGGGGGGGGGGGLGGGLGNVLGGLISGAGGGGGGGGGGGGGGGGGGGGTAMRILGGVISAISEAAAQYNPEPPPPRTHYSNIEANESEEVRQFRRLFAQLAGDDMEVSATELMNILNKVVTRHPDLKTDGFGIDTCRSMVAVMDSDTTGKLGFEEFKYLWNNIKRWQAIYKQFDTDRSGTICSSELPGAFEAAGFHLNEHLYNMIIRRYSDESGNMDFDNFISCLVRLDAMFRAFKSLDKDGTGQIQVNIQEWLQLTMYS
Experimental: The Ki value was also determined in some cases. These criteria were used to measure the inhibitory effect of the compounds (I) on calpain I, calpain II and cathepsin B.
Enzymatic Calpain Inhibition Assay
The inhibitory properties of calpain inhibitors are tested in 100 μl of a buffer containing 100 mM imidazole pH 7.5, 5 mM L-Cystein-HCl, 5 mM CaCl2, 250 μM of the calpain fluorogenic substrate Suc-Leu-Tyr-AMC (Sigma) (Sasaki et al., J. Biol. Chem., 1984, 259, 12489-12949) dissolved in 2.5 μl DMSO and 0.5 μg of human μ-calpain (Calbiochem). The inhibitors dissolved in 1 μl DMSO are added to the reaction buffer. The fluorescence of the cleavage product 7-amino-4-methylcoumarin (AMC) is followed in a SPECTRAmax GEMINI XS (Molecular Device) fluorimeter at λex=360 nm and λem=440 nm at 30° C. during 30 min at intervals of 30 sec in 96-well plates (Greiner). The initial reaction velocity at different inhibitor concentrations is plotted against the inhibitor concentration and the IC50 values determined graphically.

| SMILES | IC50 [1] | EC50 [2] | IC50 (human μ-calpain) | BSO EC50 [2] |
| --- | --- | --- | --- | --- |
| CCNC(=O)C(=O)[C@H](Cc1ccc(Cl)cc1)NC(=O)[C@@H](NC(=O)CCCCC1CCS[S+]1[O-])C(C)C (stereo partly drawn) [Example 2] | 6000 nM | 2000 nM | 80 nM |  |
| CCNC(=O)C(=O)[C@H](Cc1ccc(Cl)cc1)NC(=O)[C@@H](NC(=O)CCCC1CCCS1)C(C)C (stereo partly drawn) [Example 5] | 2000 nM | 2000 nM | 120 nM |  |
| Cc1ccc(S(=O)(=O)CNC(=O)C(=O)[C@H](Cc2ccc(Cl)cc2)NC(=O)[C@@H](NC(=O)CCCCC2CCSS2)C(C)C)cc1 (stereo partly drawn) [Example 13] | 500 nM | 1000 nM | 200 nM |  |
| CCNC(=O)C(=O)[C@H](Cc1ccc(Cl)cc1)NC(=O)[C@H](CC(C)C)NC(=O)CCCCC1CCSS1 (stereo partly drawn) [Example 15] | 2500 nM | 4000 nM | 22 nM |  |
| CCNC(=O)C(=O)[C@H](Cc1ccc(Cl)cc1)NC(=O)[C@H](CC(C)C)NC(=O)CCCCC1CCS[S+]1[O-] (stereo partly drawn) [Example 16] | 2000 nM | 4000 nM | 50 nM |  |
| Cc1ccc(S(=O)(=O)CNC(=O)C(=O)[C@H](Cc2ccc(Cl)cc2)NC(=O)[C@H](CC(C)C)NC(=O)CCCCC2CCSS2)cc1 (stereo partly drawn) [Example 25] | 1500 nM | 2000 nM | 120 nM |  |
| Cc1ccc(S(=O)(=O)CNC(=O)C(=O)[C@H](Cc2ccc(Cl)cc2)NC(=O)[C@H](CC(C)C)NC(=O)CCCCC2CCS[S+]2[O-])cc1 (stereo partly drawn) [Example 26] | 2000 nM | 4000 nM | 120 nM |  |
| CCNC(=O)C(=O)[C@H](Cc1ccc(Cl)cc1)NC(=O)[C@H](CC(C)(C)C)NC(=O)CCCCC1CCSS1 (stereo partly drawn) [Example 27] | 3500 nM |  | 100 nM | inactive |
| CCNC(=O)C(=O)[C@H](Cc1ccc(Cl)cc1)NC(=O)[C@H](CC(C)(C)C)NC(=O)CCCCC1CCS[S+]1[O-] (stereo partly drawn) [Example 28] | 4000 nM |  | 180 nM | inactive |
| CCNC(=O)C(=O)[C@H](Cc1ccc(Cl)c(Cl)c1)NC(=O)[C@H](CC(C)C)NC(=O)CCCCC1CCSS1 (stereo partly drawn) [Example 31] | 2500 nM | 15000 nM | 30 nM |  |
| CCNC(=O)C(=O)[C@H](Cc1ccc(Cl)cc1Cl)NC(=O)[C@@H](NC(=O)CCCCC1CCSS1)C(C)C (stereo partly drawn) [Example 33] | 40000 nM |  | 100 nM | inactive |
| CCNC(=O)C(=O)[C@H](Cc1ccc(Cl)cc1Cl)NC(=O)[C@H](CC(C)C)NC(=O)CCCCC1CCSS1 (stereo partly drawn) [Example 35] | 3000 nM |  | 50 nM | inactive |
| CCNC(=O)C(=O)[C@H](Cc1ccc(Cl)cc1Cl)NC(=O)[C@H](CC(C)C)NC(=O)CCCCC1CCS[S+]1[O-] (stereo partly drawn) [Example 36] | 5000 nM | 3000 nM | 40 nM |  |
| CCNC(=O)C(=O)[C@H](Cc1ccc(F)cc1)NC(=O)[C@@H](NC(=O)CCCCC1CCSS1)C(C)C (stereo partly drawn) [Example 37] | 2500 nM |  | 100 nM | inactive |
| CCNC(=O)C(=O)[C@H](Cc1ccc(F)cc1)NC(=O)[C@@H](NC(=O)CCCCC1CCS[S+]1[O-])C(C)C (stereo partly drawn) [Example 38] | 7000 nM | 20000 nM | 180 nM |  |
| CCNC(=O)C(=O)[C@H](Cc1ccc(F)cc1)NC(=O)[C@H](CC(C)C)NC(=O)CCCCC1CCS[S+]1[O-] (stereo partly drawn) [Example 40] | 15000 nM | 3000 nM | 35 nM |  |
| CCNC(=O)C(=O)[C@H](Cc1ccc(Br)cc1)NC(=O)[C@@H](NC(=O)CCCCC1CCS[S+]1[O-])C(C)C (stereo partly drawn) [Example 54] | 8000 nM | 5000 nM | 150 nM |  |
| CCNC(=O)C(=O)[C@H](Cc1ccc(Br)cc1)NC(=O)[C@@H](NC(=O)CCCCC1CCSS1)C(C)CC (stereo partly drawn) [Example 74] | 9000 nM | 3000 nM | 180 nM |  |
| CCNC(=O)C(=O)[C@H](Cc1ccc(Br)cc1)NC(=O)[C@@H](NC(=O)CCCCC1CCS[S+]1[O-])C(C)CC (stereo partly drawn) [Example 75] | 9000 nM | 6000 nM | 750 nM |  |
| CCNC(=O)C(=O)[C@H](Cc1ccc(O)cc1)NC(=O)[C@@H](NC(=O)CCCCC1CCSS1)C(C)C (stereo partly drawn) [Example 80] | 2500 nM | 6000 nM | 150 nM |  |
| CCNC(=O)C(=O)[C@H](Cc1ccc(O)cc1)NC(=O)[C@H](CC(C)C)NC(=O)CCCCC1CCSS1 (stereo partly drawn) [Example 82] | 10000 nM | 15000 nM | 40 nM |  |
| CCNC(=O)C(=O)[C@H](Cc1ccc(OC)cc1)NC(=O)[C@@H](NC(=O)CCCCC1CCSS1)C(C)C (stereo partly drawn) [Example 84] | 4000 nM | 2000 nM | 400 nM |  |
| CCNC(=O)C(=O)[C@H](Cc1ccc(OC)cc1)NC(=O)[C@@H](NC(=O)CCCCC1CCS[S+]1[O-])C(C)C (stereo partly drawn) [Example 85] | 900 nM | 5000 nM | 80 nM |  |
| CCNC(=O)C(=O)[C@H](Cc1ccc(OC)cc1)NC(=O)[C@H](CC(C)C)NC(=O)CCCCC1CCS[S+]1[O-] (stereo partly drawn) [Example 95] | 2500 nM | 10000 nM | 35 nM |  |
| CCNC(=O)C(=O)[C@H](Cc1ccc(C)cc1)NC(=O)[C@@H](NC(=O)CCCCC1CCS[S+]1[O-])C(C)C (stereo partly drawn) [Example 105] | 1000 nM | 200 nM | 80 nM |  |
| CCNC(=O)C(=O)[C@H](Cc1ccc(C)cc1)NC(=O)[C@H](CC(C)C)NC(=O)CCCCC1CCS[S+]1[O-] (stereo partly drawn) [Example 111] | 1200 nM | 3000 nM | 25 nM |  |
